PubChem BioAssay AID328 (DTP/NCI, 2004)
Values joined by “and” are separate entries in the source; they are usually repeats but may differ in a detail not shown here. Equal values may be shown once. Toxic doses and inconclusive results are not listed. Residues, ends and D or L forms follow the SMILES beside them.

System: BDF1 mice, P388 leukemia ip, median survival T/C
Test: NCI In Vivo Anticancer Drug Screen. Data for tumor model P388 Leukemia (intraperitoneal) in B6D2F1 (BDF1) mice
Conditions: endpoint: median survival time, higher = longer survival
Procedure, shortened: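 Each value expresses how treatment altered survival: treated-mouse outcome over vehicle-mouse outcome, both groups bearing the transplanted tumour.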

[1] = dose: 25.0 mg/kg/injection, schedule: Q01DX009 (ip), vehicle: saline
[2] = dose: 50.0 mg/kg/injection, schedule: Q01DX009 (ip), vehicle: saline
[3] = dose: 100.0 mg/kg/injection, schedule: Q01DX009 (ip), vehicle: saline
[4] = dose: 50.0 mg/kg/injection, schedule: Q01DX005 (ip), vehicle: saline
[5] = dose: 100.0 mg/kg/injection, schedule: Q01DX005 (ip), vehicle: saline
[6] = dose: 100.0 mg/kg/injection, schedule: Q01DX009 (ip), vehicle: saline with Tween-80
[7] = dose: 100.0 mg/kg/injection, schedule: Q04DX003 (ip), vehicle: saline with Tween-80
[8] = dose: 200.0 mg/kg/injection, schedule: Q01DX009 (ip), vehicle: saline with Tween-80
[9] = dose: 200.0 mg/kg/injection, schedule: Q04DX003 (ip), vehicle: saline with Tween-80
[10] = dose: 25.0 mg/kg/injection, schedule: Q01DX009 (ip), vehicle: saline with Tween-80
[11] = dose: 50.0 mg/kg/injection, schedule: Q01DX009 (ip), vehicle: saline with Tween-80
[12] = dose: 100.0 mg/kg/injection, schedule: Q01DX009 (ip), vehicle: Klucel (hydroxypropylcellulose) (HPC)
[13] = dose: 100.0 mg/kg/injection, schedule: Q04DX003 (ip), vehicle: Klucel (hydroxypropylcellulose) (HPC)
[14] = dose: 200.0 mg/kg/injection, schedule: Q01DX009 (ip), vehicle: Klucel (hydroxypropylcellulose) (HPC)
[15] = dose: 400.0 mg/kg/injection, schedule: Q01DX009 (ip), vehicle: Klucel (hydroxypropylcellulose) (HPC)
[16] = dose: 25.0 mg/kg/injection, schedule: Q04DX003 (ip), vehicle: saline with Tween-80
[17] = dose: 50.0 mg/kg/injection, schedule: Q04DX003 (ip), vehicle: saline with Tween-80

In the case of `CC1(C)N=C(N)N=C(N)N1c1ccc(CCCCc2ccc(Cl)c(S(=O)(=O)F)c2)c(Cl)c1`, the T/C (dose: 0.88 mg/kg/injection, schedule: Q01DX009 (ip), vehicle: saline) is reported as 118 % of control, the T/C (dose: 1.32 mg/kg/injection, schedule: Q01DX009 (ip), vehicle: saline) is reported as 109 % of control and the T/C (dose: 2.36 mg/kg/injection, schedule: Q04DX003 (ip), vehicle: saline) is reported as 106 % of control. The T/C (dose: 3.56 mg/kg/injection, schedule: Q04DX003 (ip), vehicle: saline) was 123 % of control, the T/C (dose: 5.33 mg/kg/injection, schedule: Q04DX003 (ip), vehicle: saline) was 108 % of control and the T/C (dose: 8.0 mg/kg/injection, schedule: Q04DX003 (ip), vehicle: saline) was 115 % of control. For the same compound, the T/C (dose: 8.33 mg/kg/injection, schedule: Q04DX003 (ip), vehicle: saline) was 120 % of control, the T/C (dose: 12.0 mg/kg/injection, schedule: Q01DX009 (ip), vehicle: saline) was 163 % of control and the T/C (dose: 12.5 mg/kg/injection, schedule: Q04DX003 (ip), vehicle: saline) was 181 % of control. For the same compound, the T/C (dose: 18.0 mg/kg/injection, schedule: Q01DX009 (ip), vehicle: saline) was 159 % of control, the T/C [1] was 104 % of control and the T/C [2] was 104 % of control. The T/C (dose: 50.0 mg/kg/injection, schedule: Q04DX003 (ip), vehicle: saline) was 113 % of control.

With `O=[N+]([O-])c1cc2no[n+]([O-])c2cc1N1CCOCC1` the T/C (dose: 30.0 mg/kg/injection, schedule: Q01DX009 (ip), vehicle: saline with Tween-80) was 108 % of control.

For `CCOc1ccc(S(=O)(=O)c2ccc(C)cc2)c2c1no[n+]2[O-]`, the T/C (dose: 15.0 mg/kg/injection, schedule: Q01DX009 (ip), vehicle: saline with Tween-80) was 102 % of control.

With `CC1(C)N=C(N)N=C(N)N1c1ccc(OCC(=O)Nc2ccc(S(=O)(=O)F)cc2)c(Cl)c1` the T/C (dose: 44.0 mg/kg/injection, schedule: Q04DX003 (ip), vehicle: saline) was 113 % of control, the T/C [2] was 190 % of control and the T/C (dose: 100.0 mg/kg/injection, schedule: Q01DX008 (ip), vehicle: saline) was 195 % of control. For the same compound, the T/C [3] was 205 % of control, the T/C (dose: 132.0 mg/kg/injection, schedule: Q04DX003 (ip), vehicle: saline) was 166 % of control and 200 % of control and the T/C (dose: 200.0 mg/kg/injection, schedule: Q01DX008 (ip), vehicle: saline) was 200 % of control. The T/C (dose: 200.0 mg/kg/injection, schedule: Q04DX003 (ip), vehicle: saline) was 161 % of control and 215 % of control and the T/C (dose: 300.0 mg/kg/injection, schedule: Q04DX003 (ip), vehicle: saline) was 245 % of control and 152 % of control.

`CN(C)CCNC(=O)Cc1cc(O)c2c(c1O)C(=O)c1ccccc1C2=O` was tested, and the T/C [4] was 105 % of control and the T/C [5] was 118 % of control.

In the case of `Oc1ccc(C=Nc2ccccc2N=Cc2ccc(O)c(O)c2)cc1O`, the T/C [6] is reported as 109 % of control, the T/C [7] is reported as 110 % of control and the T/C [8] is reported as 109 % of control. For the same compound, the T/C [9] was 105 % of control, the T/C (dose: 400.0 mg/kg/injection, schedule: Q01DX009 (ip), vehicle: saline with Tween-80) was 104 % of control and the T/C (dose: 400.0 mg/kg/injection, schedule: Q04DX003 (ip), vehicle: saline with Tween-80) was 110 % of control.

`COc1ccc(C2CC(c3ccccc3O)=NC(c3ccc(OC)cc3)N2)cc1` (stereo not given) was tested, and the T/C [10] was 91 % of control, the T/C [11] was 94 % of control and the T/C [6] was 92 % of control.

In the case of `C[Si](C)(C)OC/C=C\CO[Si](C)(C)C`, the T/C [3] is reported as 100 % of control, the T/C (dose: 200.0 mg/kg/injection, schedule: Q01DX009 (ip), vehicle: saline) is reported as 108 % of control and the T/C (dose: 400.0 mg/kg/injection, schedule: Q01DX009 (ip), vehicle: saline) is reported as 108 % of control.

With `CC(=O)C(C)(c1ccccc1)N(Cc1ccccc1)C(=O)c1ccccc1` (stereo not given) the T/C (dose: 100.0 mg/kg/injection, schedule: Q01DX001 (ip), vehicle: saline) was 109 % of control, the T/C (dose: 200.0 mg/kg/injection, schedule: Q01DX001 (ip), vehicle: saline) was 109 % of control and the T/C (dose: 400.0 mg/kg/injection, schedule: Q01DX001 (ip), vehicle: saline) was 104 % of control.

With `Cc1ccc(S)c(S)c1` the T/C (dose: 3.12 mg/kg/injection, schedule: Q01DX009 (ip), vehicle: saline) was 97 % of control, the T/C (dose: 6.25 mg/kg/injection, schedule: Q01DX009 (ip), vehicle: saline) was 103 % of control and the T/C (dose: 12.5 mg/kg/injection, schedule: Q01DX009 (ip), vehicle: saline) was 103 % of control. For the same compound, the T/C [1] was 112 % of control.

With `Cc1n[nH]c(=O)c2c3ccccc3nn12` the T/C (dose: 100.0 mg/kg/injection, schedule: Q04DX002 (ip), vehicle: saline with Tween-80) was 103 % of control, the T/C (dose: 200.0 mg/kg/injection, schedule: Q04DX002 (ip), vehicle: saline with Tween-80) was 110 % of control and the T/C (dose: 400.0 mg/kg/injection, schedule: Q04DX002 (ip), vehicle: saline with Tween-80) was 107 % of control.

`O=C(O)c1cc[c]([Hg][S]c2ncnc3nc[nH]c23)cc1` was tested, and the T/C (dose: 25.0 mg/kg/injection, schedule: Q01DX009 (ip), vehicle: suspension in saline) was 119 % of control.

With `COc1cc(Cc2nccc3cc(OC)c(OC)cc23)c([N+](=O)[O-])cc1OC` the T/C (dose: 100.0 mg/kg/injection, schedule: Q04DX003 (ip), vehicle: saline sonified) was 90 % of control, the T/C (dose: 200.0 mg/kg/injection, schedule: Q04DX003 (ip), vehicle: saline sonified) was 95 % of control and the T/C (dose: 400.0 mg/kg/injection, schedule: Q04DX003 (ip), vehicle: saline sonified) was 90 % of control.

`CCC(C(O)c1cccs1)C(O)(C(F)(F)F)C(F)(F)F` (stereo not given) was tested, and the T/C [7] was 95 % of control and the T/C [9] was 100 % of control.

For `CC(C)C(N)C(=O)NC(Cc1ccc(O)cc1)C(=O)NC(C(=O)O)C(C)C` (stereo not drawn) (H-Val-Tyr-Val-OH; configuration not given here), the T/C [4] was 89 % of control, the T/C [5] was 97 % of control and the T/C (dose: 200.0 mg/kg/injection, schedule: Q01DX005 (ip), vehicle: saline) was 92 % of control.

`C[C@]1(O)CC[C@H]2[C@@H]3CCC4=CC(=O)CCC4=C3C=C[C@@]21C` was tested, and the T/C (dose: 12.5 mg/kg/injection, schedule: Q01DX009 (ip), vehicle: Klucel (hydroxypropylcellulose) (HPC)) was 87 % of control, the T/C (dose: 25.0 mg/kg/injection, schedule: Q01DX009 (ip), vehicle: Klucel (hydroxypropylcellulose) (HPC)) was 91 % of control and the T/C (dose: 50.0 mg/kg/injection, schedule: Q01DX009 (ip), vehicle: Klucel (hydroxypropylcellulose) (HPC)) was 91 % of control. For the same compound, the T/C [12] was 104 % of control, the T/C [13] was 104 % of control and the T/C [14] was 109 % of control. The T/C (dose: 200.0 mg/kg/injection, schedule: Q04DX003 (ip), vehicle: Klucel (hydroxypropylcellulose) (HPC)) was 104 % of control.

In the case of `CCOC(=O)C(=O)Cc1sccc1[N+](=O)[O-]`, the T/C [12] is reported as 105 % of control, the T/C [13] is reported as 86 % of control and the T/C [14] is reported as 100 % of control. The T/C [15] was 105 % of control and the T/C (dose: 400.0 mg/kg/injection, schedule: Q04DX003 (ip), vehicle: Klucel (hydroxypropylcellulose) (HPC)) was 91 % of control.

In the case of `COc1ccc(/C(C#N)=C2C=C/C(=N\O)C(C)=C/2Cl)cc1`, the T/C (dose: 12.5 mg/kg/injection, schedule: Q04DX003 (ip), vehicle: saline with Tween-80) is reported as 91 % of control, the T/C [16] is reported as 91 % of control and the T/C [17] is reported as 87 % of control.

With `O=C(O)CCC(=O)Nc1cccc(Oc2ccc([N+](=O)[O-])cc2[N+](=O)[O-])c1` the T/C (dose: 100.0 mg/kg/injection, schedule: Q04DX003 (ip), vehicle: other) was 95 % of control, the T/C [14] was 113 % of control and the T/C (dose: 200.0 mg/kg/injection, schedule: Q04DX003 (ip), vehicle: other) was 100 % of control. For the same compound, the T/C [15] was 109 % of control and the T/C (dose: 400.0 mg/kg/injection, schedule: Q04DX003 (ip), vehicle: other) was 100 % of control.

`COc1ccc(C(=O)/C=C/c2ccc(OCc3ccccc3)cc2)cc1` was tested, and the T/C [11] was 100 % of control, the T/C [6] was 91 % of control and the T/C [8] was 96 % of control.

`O=C1c2ccccc2C(=O)N1C1CCC(O)CC1` (stereo not given) was tested, and the T/C [10] was 109 % of control, the T/C [16] was 104 % of control and the T/C [11] was 86 % of control. The T/C [17] was 109 % of control, the T/C [6] was 90 % of control and the T/C [7] was 104 % of control.

`O=C(c1ccccc1)c1cc(-c2ccccc2)n(C2CCCCC2)c1` was tested, and the T/C [10] was 96 % of control, the T/C [11] was 86 % of control and the T/C [6] was 94 % of control. For the same compound, the T/C [8] was 96 % of control.

In the case of `C[C@]12CCC(=O)C[C@@H]1CC[C@@H]1[C@@H]2CC[C@]2(C)[C@@H](OC(=O)N(CCCl)N=O)CC[C@@H]12`, the T/C [3] is reported as 100 % of control.
